Laboratory results published in the supplement of paper PMC11451515.

Test system: NOMO1
Test: cell viability relative to DMSO control; higher = less cytotoxic
Settings: 48 h
Procedure, shortened: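 Viability is a per-plate percentage relative to DMSO wells, with cell-free wells as background. CellTiter-Glo One luminescence was read after 48 h at 37°C on 1536-well plates (5 μl) of NOMO1 or SEM (500 cells/well) or P12-Ichikawa (1000 cells/well) leukemia cells. The cells had been adapted for at least four passages in each medium and pin-dosed with library compounds in DMSO from 47 μM to 0.79 nM in 11 threefold steps.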

[1] = HPLM + 10% dialyzed FBS, 0.000781 µM
[2] = HPLM + 10% dialyzed FBS, 0.00234 µM
[3] = HPLM + 10% dialyzed FBS, 0.00702 µM
[4] = HPLM + 10% dialyzed FBS, 0.0211 µM
[5] = HPLM + 10% dialyzed FBS, 0.0632 µM
[6] = HPLM + 10% dialyzed FBS, 0.19 µM
[7] = HPLM + 10% dialyzed FBS, 0.569 µM
[8] = HPLM + 10% dialyzed FBS, 1.71 µM
[9] = HPLM + 10% dialyzed FBS, 5.12 µM
[10] = HPLM + 10% dialyzed FBS, 15.4 µM
[11] = HPLM + 10% dialyzed FBS, 46.1 µM
[12] = RPMI 5 mM glucose + 10% FBS, 0.000781 µM
[13] = RPMI 5 mM glucose + 10% FBS, 0.00234 µM
[14] = RPMI 5 mM glucose + 10% FBS, 0.00702 µM
[15] = RPMI 5 mM glucose + 10% FBS, 0.0211 µM
[16] = RPMI 5 mM glucose + 10% FBS, 0.0632 µM
[17] = RPMI 5 mM glucose + 10% FBS, 0.19 µM
[18] = RPMI 5 mM glucose + 10% FBS, 0.569 µM
[19] = RPMI 5 mM glucose + 10% FBS, 1.71 µM
[20] = RPMI 5 mM glucose + 10% FBS, 5.12 µM
[21] = RPMI 5 mM glucose + 10% FBS, 15.4 µM
[22] = RPMI 5 mM glucose + 10% FBS, 46.1 µM
[23] = RPMI 5 mM glucose + 10% dialyzed FBS, 0.000781 µM
[24] = RPMI 5 mM glucose + 10% dialyzed FBS, 0.00234 µM
[25] = RPMI 5 mM glucose + 10% dialyzed FBS, 0.00702 µM
[26] = RPMI 5 mM glucose + 10% dialyzed FBS, 0.0211 µM
[27] = RPMI 5 mM glucose + 10% dialyzed FBS, 0.0632 µM
[28] = RPMI 5 mM glucose + 10% dialyzed FBS, 0.19 µM
[29] = RPMI 5 mM glucose + 10% dialyzed FBS, 0.569 µM
[30] = RPMI 5 mM glucose + 10% dialyzed FBS, 1.71 µM
[31] = RPMI 5 mM glucose + 10% dialyzed FBS, 5.12 µM
[32] = RPMI 5 mM glucose + 10% dialyzed FBS, 15.4 µM
[33] = RPMI 5 mM glucose + 10% dialyzed FBS, 46.1 µM

| SMILES | cell viability [1] [%] | cell viability [2] [%] | cell viability [3] [%] | cell viability [4] [%] | cell viability [5] [%] | cell viability [6] [%] | cell viability [7] [%] | cell viability [8] [%] | cell viability [9] [%] | cell viability [10] [%] | cell viability [11] [%] | cell viability [12] [%] | cell viability [13] [%] | cell viability [14] [%] | cell viability [15] [%] | cell viability [16] [%] | cell viability [17] [%] | cell viability [18] [%] | cell viability [19] [%] | cell viability [20] [%] | cell viability [21] [%] | cell viability [22] [%] | cell viability [23] [%] | cell viability [24] [%] | cell viability [25] [%] | cell viability [26] [%] | cell viability [27] [%] | cell viability [28] [%] | cell viability [29] [%] | cell viability [30] [%] | cell viability [31] [%] | cell viability [32] [%] | cell viability [33] [%] |
| --- | --- | --- | --- | --- | --- | --- | --- | --- | --- | --- | --- | --- | --- | --- | --- | --- | --- | --- | --- | --- | --- | --- | --- | --- | --- | --- | --- | --- | --- | --- | --- | --- | --- |
| CC12CC3CC(C)(C1)CC(N)(C3)C2 | 119 | 111 | 120 | 98.4 | 125 | 139 | 134 | 129 | 107 | 89.2 | 49.7 | 105 | 116 | 133 | 113 | 122 | 128 | 134 | 108 | 127 | 100 | 58.5 | 111 | 105 | 114 | 111 | 116 | 132 | 135 | 120 | 113 | 102 | 78 |
| Cc1csc(-c2nnc(Nc3ccc(Oc4ncccc4-c4ccnc(N)n4)cc3)c3ccccc23)c1 | 106 | 101 | 113 | 79 | 95.3 | 89.3 | 99.5 | 86.7 | 72.6 | 76.3 | 84.1 | 99.9 | 111 | 97.5 | 53.2 | 45.9 | 52.6 | 75.1 | 81.6 | 65.9 | 67.3 | 74.1 | 105 | 103 | 89.8 | 60.3 | 62 | 59 | 72.6 | 77.9 | 72.5 | 84.1 | 80.5 |
| O=P(O)(O)C(O)(Cn1ccnc1)P(=O)(O)O | 95.9 | 126 | 120 | 119 | 125 | 130 | 121 | 139 | 104 | 111 | 117 | 93.5 | 111 | 108 | 103 | 105 | 109 | 101 | 104 | 110 | 104 | 101 | 101 | 127 | 114 | 130 | 112 | 133 | 118 | 124 | 122 | 117 | 104 |
| COc1c(C)c2c(c(O)c1C/C=C(\C)CCC(=O)O)C(=O)OC2 | 116 | 109 | 106 | 107 | 116 | 95.4 | 115 | 100 | 86.7 | 45.2 | 32.6 | 101 | 107 | 102 | 94.4 | 109 | 94.9 | 102 | 109 | 84.6 | 47.5 | 22.3 | 98.4 | 96.7 | 105 | 97.3 | 100 | 108 | 84.7 | 89.5 | 90.4 | 58 | 38.3 |
| COc1ccc2c(c1)[C@]13CCCCC1C(C2)N(C)CC3 (some centres not stated) | – | – | – | – | – | – | – | – | – | – | – | 104 | 117 | 107 | 121 | 118 | 108 | 109 | 111 | 121 | 90.3 | 101 | 111 | 114 | 116 | 119 | 135 | 130 | 114 | 132 | 115 | 118 | 84.2 |
| CC(C)(O)CC(=O)NCCn1ccc2ncnc(Nc3ccc(Oc4cccc(C(F)(F)F)c4)c(Cl)c3)c21 | 96.8 | 109 | 107 | 120 | 89.5 | 98.9 | 107 | 85.5 | 80.5 | 54.7 | 33.9 | 95.1 | 109 | 103 | 105 | 101 | 97.9 | 111 | 95.3 | 96.8 | 79 | 53.6 | 106 | 100 | 95.3 | 108 | 99.8 | 109 | 107 | 97.1 | 81.9 | 67.8 | 44.1 |
| O=C(O)c1cccnc1Nc1cccc(C(F)(F)F)c1 | 112 | 124 | 129 | 104 | 122 | 131 | 150 | 142 | 132 | 129 | 135 | 105 | 116 | 108 | 116 | 110 | 128 | 124 | 122 | 125 | 132 | 120 | 97.1 | 101 | 101 | 114 | 114 | 117 | 120 | 111 | 115 | 120 | 106 |
| COc1ccc(C(=O)c2c(C)n(CCN3CCOCC3)c3cc(I)ccc23)cc1 | – | – | – | – | – | – | – | – | – | – | – | 105 | 112 | 126 | 133 | 138 | 122 | 119 | 29.9 | 27.1 | 24.9 | 21.1 | 100 | 115 | 124 | 116 | 130 | 126 | 137 | 52.3 | 29.1 | 27.4 | 23.3 |
